According to ChEMBL document CHEMBL1201862, “PubChem BioAssay data set” (2004):
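Method: 48-hour compound exposure of cells in 96-well plates, five concentrations, linear interpolation of endpoints. Here, GI50 denotes the concentration required for 50% inhibition of growth.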 Calls of active or inactive are those of the source. No stated cut-off is given here; in the data, active = GI50 up to about 1.1 µM and inactive = higher.

What was measured:
Test in all cases: DTP human tumour cell line panel, 48 h
RPMI-8226 = test system: RPMI-8226
ACHN = test system: ACHN
SF-539 = test system: SF-539
LOX IMVI = test system: LOX IMVI
A498 = test system: A498
CAKI-1 = test system: CAKI-1
NCI-H23 = test system: NCI-H23
PC-3 = test system: PC-3
MDA-N = test system: MDA-N
MOLT-4 = test system: MOLT-4
Hs-578T = test system: Hs-578T
UACC-62 = test system: UACC-62
EKVX = test system: EKVX
NCI-H460 = test system: NCI-H460
NCI-H522 = test system: NCI-H522
CCRF-CEM = test system: CCRF-CEM
HOP-92 = test system: HOP-92
RXF 393 = test system: RXF 393
SK-OV-3 = test system: SK-OV-3
K562 = test system: K562

Compound	GI50 (RPMI-8226)	GI50 (ACHN)	GI50 (SF-539)	GI50 (LOX IMVI)	GI50 (A498)	GI50 (CAKI-1)	GI50 (NCI-H23)	GI50 (PC-3)	GI50 (MDA-N)	GI50 (MOLT-4)	GI50 (Hs-578T)	GI50 (UACC-62)	GI50 (EKVX)	GI50 (NCI-H460)	GI50 (NCI-H522)	GI50 (CCRF-CEM)	GI50 (HOP-92)	GI50 (RXF 393)	GI50 (SK-OV-3)	GI50 (K562)
O=C(/C=C/c1ccc(Cl)c(Cl)c1)Oc1ccc(/C=C2\CCCCC2=O)cc1	67.6 µM (inactive)	> 100 µM (inactive)	> 100 µM (inactive)	> 100 µM (inactive)	> 100 µM (inactive)	> 100 µM (inactive)	> 100 µM (inactive)	> 100 µM (inactive)	> 100 µM (inactive)	24.6 µM (inactive)	> 100 µM (inactive)	> 100 µM (inactive)	> 100 µM (inactive)	> 100 µM (inactive)	91.8 µM (inactive)	> 100 µM (inactive)	> 100 µM (inactive)	–	–	–
Cc1cc(O)cc2c1c(=O)c1ccccc1n2C	> 100 µM (inactive)	89.7 µM (inactive)	32.5 µM (inactive)	> 100 µM (inactive)	45.3 µM (inactive)	> 100 µM (inactive)	38.9 µM (inactive)	> 100 µM (inactive)	> 100 µM (inactive)	55.1 µM (inactive)	37.1 µM (inactive)	> 100 µM (inactive)	> 100 µM (inactive)	5.33 µM (inactive)	34.8 µM (inactive)	> 100 µM (inactive)	39.4 µM (inactive)	41.5 µM (inactive)	75.2 µM (inactive)	–
CCOC(=O)N[C@H]1CCc2cc(OC)c(OC)c(OC)c2-c2ccc(SC)c(=O)cc21	< 0.01 µM (active)	< 0.01 µM (active)	< 0.01 µM (active)	< 0.01 µM (active)	< 0.01 µM (active)	< 0.01 µM (active)	< 0.01 µM (active)	< 0.01 µM (active)	< 0.01 µM (active)	< 0.01 µM (active)	< 0.01 µM (active)	< 0.01 µM (active)	29.9 µM (inactive)	< 0.01 µM (active)	< 0.01 µM (active)	< 0.01 µM (active)	< 0.01 µM (active)	< 0.01 µM (active)	–	< 0.01 µM (active)
O=C(NO)c1ccc(C(=O)NO)cc1	30.1 µM (inactive)	> 100 µM (inactive)	> 100 µM (inactive)	> 100 µM (inactive)	> 100 µM (inactive)	> 100 µM (inactive)	> 100 µM (inactive)	> 100 µM (inactive)	> 100 µM (inactive)	24.9 µM (inactive)	> 100 µM (inactive)	> 100 µM (inactive)	> 100 µM (inactive)	> 100 µM (inactive)	–	31.3 µM (inactive)	82.2 µM (inactive)	50.4 µM (inactive)	12 µM (inactive)	38.4 µM (inactive)
NC(CCC(=O)O)(CCC(=O)O)CCC(=O)O	> 100 µM (inactive)	> 100 µM (inactive)	> 100 µM (inactive)	–	–	> 100 µM (inactive)	> 100 µM (inactive)	> 100 µM (inactive)	> 100 µM (inactive)	> 100 µM (inactive)	> 100 µM (inactive)	> 100 µM (inactive)	> 100 µM (inactive)	> 100 µM (inactive)	11.5 µM (inactive)	> 100 µM (inactive)	> 100 µM (inactive)	> 100 µM (inactive)	> 100 µM (inactive)	> 100 µM (inactive)
CC(=O)CC(O)(C(F)(F)Cl)C(F)(Cl)Cl (centres undefined)	–	> 10 µM (inactive)	> 10 µM (inactive)	> 10 µM (inactive)	> 10 µM (inactive)	> 10 µM (inactive)	> 10 µM (inactive)	> 10 µM (inactive)	> 10 µM (inactive)	–	> 10 µM (inactive)	> 10 µM (inactive)	> 10 µM (inactive)	> 10 µM (inactive)	> 10 µM (inactive)	> 10 µM (inactive)	> 10 µM (inactive)	> 10 µM (inactive)	> 10 µM (inactive)	> 10 µM (inactive)
OC(c1ccc(F)cc1)C(F)(F)c1nc(-c2ccccc2)no1 (centres undefined)	–	27.2 µM (inactive)	–	86.5 µM (inactive)	22.6 µM (inactive)	27 µM (inactive)	26.1 µM (inactive)	21.8 µM (inactive)	23.8 µM (inactive)	–	30.5 µM (inactive)	18.2 µM (inactive)	22.9 µM (inactive)	0.0632 µM (active)	2.44 µM (inactive)	14.3 µM (inactive)	23.7 µM (inactive)	–	–	–
CN1CCCCC1CCN1CCCCC1 (centres undefined)	> 100 µM (inactive)	> 100 µM (inactive)	–	> 100 µM (inactive)	> 100 µM (inactive)	> 100 µM (inactive)	> 100 µM (inactive)	> 100 µM (inactive)	> 100 µM (inactive)	> 100 µM (inactive)	> 100 µM (inactive)	> 100 µM (inactive)	> 100 µM (inactive)	> 100 µM (inactive)	> 100 µM (inactive)	–	> 100 µM (inactive)	> 100 µM (inactive)	> 100 µM (inactive)	> 100 µM (inactive)
CSC(CC(=O)O)C(=O)O (centres undefined)	> 100 µM (inactive)	> 100 µM (inactive)	> 100 µM (inactive)	> 100 µM (inactive)	> 100 µM (inactive)	> 100 µM (inactive)	> 100 µM (inactive)	> 100 µM (inactive)	> 100 µM (inactive)	> 100 µM (inactive)	> 100 µM (inactive)	> 100 µM (inactive)	> 100 µM (inactive)	> 100 µM (inactive)	> 100 µM (inactive)	> 100 µM (inactive)	> 100 µM (inactive)	> 100 µM (inactive)	> 100 µM (inactive)	–
COC(=O)[C@H](Cc1ccccc1)NC(=O)N1CCN(C(=O)N[C@@H](Cc2ccccc2)C(=O)OC)CCN(C(=O)N[C@@H](Cc2ccccc2)C(=O)OC)CC1	> 100 µM (inactive)	> 100 µM (inactive)	–	> 100 µM (inactive)	> 100 µM (inactive)	> 100 µM (inactive)	> 100 µM (inactive)	> 100 µM (inactive)	> 100 µM (inactive)	> 100 µM (inactive)	> 100 µM (inactive)	> 100 µM (inactive)	> 100 µM (inactive)	> 100 µM (inactive)	> 100 µM (inactive)	> 100 µM (inactive)	> 100 µM (inactive)	> 100 µM (inactive)	> 100 µM (inactive)	> 100 µM (inactive)
C#CCCCC(=O)N(C(=O)C[S+]([O-])CC)c1ccccc1 (centres undefined)	–	> 100 µM (inactive)	> 100 µM (inactive)	> 100 µM (inactive)	–	> 100 µM (inactive)	> 100 µM (inactive)	> 100 µM (inactive)	> 100 µM (inactive)	> 100 µM (inactive)	> 100 µM (inactive)	> 100 µM (inactive)	> 100 µM (inactive)	> 100 µM (inactive)	> 100 µM (inactive)	> 100 µM (inactive)	> 100 µM (inactive)	> 100 µM (inactive)	> 100 µM (inactive)	> 100 µM (inactive)
Cn1c(-c2ccccc2)cc2c3ccsc3c3ccsc3c21	> 100 µM (inactive)	> 100 µM (inactive)	> 100 µM (inactive)	> 100 µM (inactive)	> 100 µM (inactive)	> 100 µM (inactive)	> 100 µM (inactive)	> 100 µM (inactive)	> 100 µM (inactive)	92.7 µM (inactive)	> 100 µM (inactive)	> 100 µM (inactive)	–	53.1 µM (inactive)	> 100 µM (inactive)	–	> 100 µM (inactive)	> 100 µM (inactive)	> 100 µM (inactive)	–
COC(=O)C1CC23CCCN4CCC5(c6ccccc6N(C=O)C15CC2)C43 (centres undefined)	> 100 µM (inactive)	> 100 µM (inactive)	> 100 µM (inactive)	> 100 µM (inactive)	> 100 µM (inactive)	> 100 µM (inactive)	> 100 µM (inactive)	> 100 µM (inactive)	> 100 µM (inactive)	> 100 µM (inactive)	> 100 µM (inactive)	> 100 µM (inactive)	> 100 µM (inactive)	> 100 µM (inactive)	> 100 µM (inactive)	> 100 µM (inactive)	> 100 µM (inactive)	> 100 µM (inactive)	> 100 µM (inactive)	–
C[N+](C)(C)CC1CCC(C[N+](C)(C)C)C1=O (centres undefined)	0.328 µM (active)	1.82 µM (inactive)	7.74 µM (inactive)	4.84 µM (inactive)	6.78 µM (inactive)	0.668 µM (active)	4.22 µM (inactive)	17.2 µM (inactive)	4.94 µM (inactive)	–	38.6 µM (inactive)	8.53 µM (inactive)	–	24.3 µM (inactive)	0.2 µM (active)	–	0.92 µM (active)	1.91 µM (inactive)	23.4 µM (inactive)	0.359 µM (active)
Clc1ccccc1C(c1ccccc1)(c1ccccc1)n1ccnc1 [CLOTRIMAZOLE]	6.32 µM (inactive)	10 µM (inactive)	–	–	20.6 µM (inactive)	17.4 µM (inactive)	13 µM (inactive)	7.03 µM (inactive)	11.9 µM (inactive)	8.95 µM (inactive)	15.1 µM (inactive)	13.3 µM (inactive)	7.93 µM (inactive)	10.7 µM (inactive)	6.38 µM (inactive)	5.93 µM (inactive)	11.8 µM (inactive)	17.4 µM (inactive)	14.5 µM (inactive)	5.97 µM (inactive)
